{"source": "patent US20070249540A1", "about": "“Methods for Inhibiting Proteasome and Heat Shock Protein 90” (priority 2004, published 2007)", "key": {"[1]": {"tested_on": "MCF-7 breast cancer cells", "conditions": "0.01 μM taxol, stated as known; cited from earlier work"}, "[2]": {"tested_on": "MCF-7 breast cancer cells", "experiment": "Sensitization of MCF-7 breast cancer cells to the cytotoxic effects of Taxol", "assay_type": "cell-based, human", "conditions": "MCF-7, 0.01 μM Taxol alone", "method": "Tumor cells are allowed to proliferate in the presence of an inhibitory agent for 48 to 96 hrs. At the end of the assay, tumor cell proliferation in the presence of the inhibitory agent is determined either by cell counting or BrdU incorporation and expressed as % of Control Proliferation, where the term “Control Proliferation” refers to tumor cell proliferation in the absence of any inhibitory or other agents.\nMCF-7 breast cancer cells were plated onto a 24-well plate at a density of 208,000 cells per well and allowed to adhere overnight. Subsequently, the cells were treated with 0.01 μM taxol, a concentration known to inhibit 50% of MCF-7 cell proliferation. 6 hrs after the addition of taxol, half of the wells received 0.001 μM SEQ ID NO: 2. […] Cell proliferation of control (untreated) MCF-7 cells and MCF-7 cells treated either with Taxol or SEQ ID NO: 2 alone or with the combination of Taxol and SEQ ID NO: 2 was determined."}}, "data": [{"compound": "CC(=O)O[C@H]1C(=O)[C@@]2(C)[C@H]([C@H](OC(=O)c3ccccc3)[C@]3(O)C[C@H](OC(=O)[C@H](O)[C@@H](NC(=O)c4ccccc4)c4ccccc4)C(C)=C1C3(C)C)[C@]1(OC(C)=O)CO[C@@H]1C[C@@H]2O", "note": "[Taxol]", "values": [{"measurement": "inhibition of MCF-7 cell proliferation", "setting": "[1]", "result": 50, "unit": "%"}, {"measurement": "% Control Proliferation", "setting": "[2]", "result": 52, "unit": "%"}]}]}
